Assay results from ChEMBL document CHEMBL1147434, “Synthesis and biological results of the technetium-99m-labeled 4-nitroimidazole for imaging tumor hypoxia” (Bioorg Med Chem Lett, 2004).

Key:
Format in all cases: ADME, organism-based
[1] = system: Mus musculus; test: In vivo biodistribution of radiolabeled [99mTc]-N4IPA in mice blood bearing S180 tumor cell line for 1 hour; conditions: ccrf s-180, 1 h
[2] = system: Mus musculus; test: In vivo biodistribution of radiolabeled [99mTc]-N4IPA in mice liver bearing S180 tumor cell line for 30 minutes; conditions: ccrf s-180, 0.5 h
[3] = system: Mus musculus; test: In vivo biodistribution of radiolabeled [99mTc]-N4IPA in mice blood bearing S180 tumor cell line for 4 hours; conditions: ccrf s-180, 4 h
[4] = system: Mus musculus; test: In vivo biodistribution of radiolabeled [99mTc]-N4IPA in mice tumor/heart bearing S180 tumor cell line for 8 hours; conditions: ccrf s-180, 8 h
[5] = system: Mus musculus; test: In vivo biodistribution of radiolabeled [99mTc]-N4IPA in mice tumor/lung bearing S180 tumor cell line for 4 hours; conditions: ccrf s-180, 4 h
[6] = system: Mus musculus; test: In vivo biodistribution of radiolabeled [99mTc]-N4IPA in mice brain bearing S180 tumor cell line for 1 hour; conditions: ccrf s-180, 1 h
[7] = system: Mus musculus; test: In vivo biodistribution of radiolabeled [99mTc]N4IPA in mice tumor/blood bearing S180 tumor cell line for 30 minutes; conditions: ccrf s-180, 0.5 h
[8] = system: Mus musculus; test: In vivo biodistribution of radiolabeled [99mTc]-N4IPA in mice spleen bearing S180 tumor cell line for 30 minutes; conditions: ccrf s-180, 0.5 h
[9] = system: Mus musculus; test: In vivo biodistribution of radiolabeled [99mTc]-N4IPA in mice lung bearing S180 tumor cell line for 4 hours; conditions: ccrf s-180, 4 h
[10] = system: Mus musculus; test: In vivo biodistribution of radiolabeled [99mTc]-N4IPA in mice tumor/liver bearing S180 tumor cell line for 1 hour; conditions: ccrf s-180, 1 h
[11] = system: Mus musculus; test: In vivo biodistribution of radiolabeled [99mTc]N4IPA in mice tumor/liver bearing S180 tumor cell line for 30 minutes; conditions: ccrf s-180, 0.5 h
[12] = system: Mus musculus; test: In vivo biodistribution of radiolabeled [99mTc]-N4IPA in mice tumor/lung bearing S180 tumor cell line for 8 hours; conditions: ccrf s-180, 8 h
[13] = system: Mus musculus; test: In vivo biodistribution of radiolabeled [99mTc]N4IPA in mice tumor/liver bearing S180 tumor cell line for 2 hours; conditions: ccrf s-180, 2 h
[14] = system: Mus musculus; test: In vivo biodistribution of radiolabeled [99mTc]N4IPA in mice tumor/blood bearing S180 tumor cell line for 2 hours; conditions: ccrf s-180, 2 h
[15] = system: Mus musculus; test: In vivo biodistribution of radiolabeled [99mTc]N4IPA in mice tumor bearing S180 tumor cell line for 2 hours; conditions: ccrf s-180, 2 h
[16] = system: Mus musculus; test: In vivo biodistribution of radiolabeled [99mTc]N4IPA in mice spleen bearing S180 tumor cell line for 1 hour; conditions: ccrf s-180, 1 h
[17] = system: Mus musculus; test: In vivo biodistribution of radiolabeled [99mTc]-N4IPA in mice heart bearing S180 tumor cell line for 1 hour; conditions: ccrf s-180, 1 h
[18] = system: Mus musculus; test: In vivo biodistribution of radiolabeled [99mTc]N4IPA in mice lung bearing S180 tumor cell line for 30 minutes; conditions: ccrf s-180, 0.5 h
[19] = system: Mus musculus; test: In vivo biodistribution of radiolabeled [99mTc]-N4IPA in mice kidney bearing S180 tumor cell line for 4 hours; conditions: ccrf s-180, 4 h
[20] = system: Mus musculus; test: In vivo biodistribution of radiolabeled [99mTc]-N4IPA in mice tumor/heart bearing S180 tumor cell line for 30 minutes; conditions: ccrf s-180, 0.5 h
[21] = system: Mus musculus; test: In vivo biodistribution of radiolabeled [99mTc]N4IPA in mice liver bearing S180 tumor cell line for 8 hours; conditions: ccrf s-180, 8 h
[22] = system: Mus musculus; test: In vivo biodistribution of radiolabeled [99mTc]-N4IPA in mice blood bearing S180 tumor cell line for 2 hours; conditions: ccrf s-180, 2 h
[23] = system: Mus musculus; test: In vivo biodistribution of radiolabeled [99mTc]N4IPA in mice brain bearing S180 tumor cell line for 30 minutes; conditions: ccrf s-180, 0.5 h
[24] = system: Mus musculus; test: In vivo biodistribution of radiolabeled [99mTc]N4IPA in mice tumor/heart bearing S180 tumor cell line for 2 hours; conditions: ccrf s-180, 2 h
[25] = system: Mus musculus; test: In vivo biodistribution of radiolabeled [99mTc]-N4IPA in mice tumor/liver bearing S180 tumor cell line for 4 hours; conditions: ccrf s-180, 4 h
[26] = system: Mus musculus; test: In vivo biodistribution of radiolabeled [99mTc]N4IPA in mice kidney bearing S180 tumor cell line for 1 hour; conditions: ccrf s-180, 1 h
[27] = system: Mus musculus; test: In vivo biodistribution of radiolabeled [99mTc]N4IPA in mice heart bearing S180 tumor cell line for 8 hours; conditions: ccrf s-180, 8 h
[28] = system: Mus musculus; test: In vivo biodistribution of radiolabeled [99mTc]-N4IPA in mice heart bearing S180 tumor cell line for 30 minutes; conditions: ccrf s-180, 0.5 h
[29] = system: Mus musculus; test: In vivo biodistribution of radiolabeled [99mTc]-N4IPA in mice muscle bearing S180 tumor cell line for 30 minutes; conditions: ccrf s-180, 0.5 h
[30] = system: Mus musculus; test: In vivo biodistribution of radiolabeled [99mTc]-N4IPA in mice spleen bearing S180 tumor cell line for 8 hours; conditions: ccrf s-180, 8 h
[31] = system: Mus musculus; test: In vivo biodistribution of radiolabeled [99mTc]-N4IPA in mice liver bearing S180 tumor cell line for 4 hours; conditions: ccrf s-180, 4 h
[32] = system: Mus musculus; test: In vivo biodistribution of radiolabeled [99mTc]N4IPA in mice brain bearing S180 tumor cell line for 8 hours; conditions: ccrf s-180, 8 h
[33] = system: Mus musculus; test: In vivo biodistribution of radiolabeled [99mTc]N4IPA in mice tumor bearing S180 tumor cell line for 8 hours; conditions: ccrf s-180, 8 h
[34] = system: Mus musculus; test: In vivo biodistribution of radiolabeled [99mTc]-N4IPA in mice kidney bearing S180 tumor cell line for 8 hours; conditions: ccrf s-180, 8 h
[35] = system: Mus musculus; test: In vivo biodistribution of radiolabeled [99mTc]N4IPA in mice heart bearing S180 tumor cell line for 4 hours; conditions: ccrf s-180, 4 h

## N/C(CCn1cnc([N+](=O)[O-])c1)=N\O
[1]
  Biodistribution: 0.28 % g-1
[2]
  Biodistribution: 0.98 % g-1
[3]
  Biodistribution: 0.18 % g-1
[4]
  Biodistribution: 5.39 % g-1
[5]
  Biodistribution: 2.94 % g-1
[6]
  Biodistribution: 0.04 % g-1
[7]
  Biodistribution: 0.78 % g-1
[8]
  Biodistribution: 0.13 % g-1
[9]
  Biodistribution: 0.12 % g-1
[10]
  Biodistribution: 0.57 % g-1
[11]
  Biodistribution: 0.56 % g-1
[12]
  Biodistribution: 3.09 % g-1
[13]
  Biodistribution: 0.85 % g-1
[14]
  Biodistribution: 1.81 % g-1
[15]
  Biodistribution: 0.39 % g-1
[16]
  Biodistribution: 0.1 % g-1
[17]
  Biodistribution: 0.14 % g-1
[18]
  Biodistribution: 0.39 % g-1
[19]
  Biodistribution: 3.14 % g-1
[20]
  Biodistribution: 2.31 % g-1
[21]
  Biodistribution: 0.23 % g-1
[22]
  Biodistribution: 0.22 % g-1
[23]
  Biodistribution: 0.04 % g-1
[24]
  Biodistribution: 3.39 % g-1
[25]
  Biodistribution: 0.88 % g-1
[26]
  Biodistribution: 5.44 % g-1
[27]
  Biodistribution: 0.06 % g-1
[28]
  Biodistribution: 0.24 % g-1
[29]
  Biodistribution: 0.15 % g-1
[30]
  Biodistribution: 0.06 % g-1
[31]
  Biodistribution: 0.39 % g-1
[32]
  Biodistribution: 0.04 % g-1
[33]
  Biodistribution: 0.32 % g-1
[34]
  Biodistribution: 2.26 % g-1
[35]
  Biodistribution: 0.08 % g-1
